Source: paper PMC6384738, “Structure-Function Studies of Polymyxin B Lipononapeptides” (Molecules, 2019)
Values after ≈ are worked out from the molar mass of the structure shown. Where a SMILES comes first, the peptide text is derived from it. Bridges are numbered along the chain shown (N, C = ends). [ ]: non-standard residue; d: D form. The star is where a group is joined. Hexanoyl(6-Ph) = O=C(CCCCCc1ccccc1)*; Octanoyl = CCCCCCCC(=O)*; Orn = NCCC[C@H](N)C(=O)O; Dab = NCC[C@H](N)C(=O)O; Dap = NC[C@H](N)C(=O)O

Tests used:
[1] = tested on: K. pneumoniae ATCC 13833; test: microbe, parasite or virus in culture; details: ATCC 13833, 18 h
Experimental: (§1) All compounds synthesised in this study were assessed for their minimum inhibitory concentrations (MIC, mg/L) by broth microdilution assay against five antibiotic-sensitive and resistant ATCC reference strains covering the Gram-negative ESKAPE pathogens (Escherichia coli, Klebsiella pneumoniae, A. baumannii, and P. aeruginosa) (Table 1, Table 2 and Table 3). Staphylococcus aureus was also included as a representative Gram-positive bacterial strain. […] Polymyxin B 1, colistin 2, vancomycin and gentamicin were used as positive inhibitor comparator compounds. Compounds were counter-screened against human proximal tubular epithelial cells (HK-2), using LDH release as a general indicator of cellular toxicity.

[2] = tested on: A. baumannii ATCC 19606; test: microbe, parasite or virus in culture; details: ATCC 19606, 18 h
Experimental: as §1

[3] = tested on: K. pneumoniae ATCC 700603; test: microbe, parasite or virus in culture; details: ATCC 700603, 18 h
Experimental: as §1

[4] = tested on: P. aeruginosa ATTC 27853; test: microbe, parasite or virus in culture; details: ATTC 27853, 18 h
Experimental: as §1

[5] = tested on: E. coli ATCC 25922; test: microbe, parasite or virus in culture; details: ATCC 25922, 18 h
Experimental: as §1

[6] = tested on: S. aureus ATCC 25923; test: microbe, parasite or virus in culture; details: ATCC 25923, 18 h
Experimental: as §1

[7] = tested on: K. pneumoniae BAA 2146; test: microbe, parasite or virus in culture; details: BAA 2146, 18 h
Experimental: as §1

[8] = in vitro; details: human
Experimental: as §1
Cytotoxicity to human kidney proximal tubular epithelial cell line, HK-2 (ATCC CRL-2190, sourced from ATCC; Manassas, VA, USA) was determined using the LDH assay as previously described. In brief, HK-2 cells were seeded as 2000 cells/well in black-walled clear bottom 384-well tissue culture treated plates (Corning, catalogue No. 3712) in DMEM/F12 medium (Gibco® 10565-042) containing 10% of Fetal Bovine Serum (FBS, Gibco® 10099-141) and incubated for 24 h at 37 °C, 5% CO2. Compounds were then added into each well with a concentration series from 300 µM to 2.3 µM in 2-fold dilutions. Colistin and polymyxin B were used as controls and tested at a final concentration range of 1 mM to 7.8 µM. The cells were incubated with the compounds for 24 h at 37 °C, 5% CO2. After the incubation, 5 µL of culture medium was added to 45 µL of LDH assay buffer (Biovision, K313-500) and incubated for 30 min at room temperature. The absorbance (ABS) was then read at 450 nm using a Polar Star Omega plate reader. The data was analysed by Prism 6 software (GraphPad Software, La Jolla, CA, USA). Results were calculated using the following equation: cytotoxicity %= (ABSsamples − ABSuntreated/ABS1%Triton X-100 − ABSuntreated) × 100.

Row | SMILES | MIC K. pneumoniae ATCC 13833 [1] [mg/L] | MIC A. baumannii ATCC 19606 [2] [mg/L] | MIC K. pneumoniae ATCC 700603 [3] [mg/L] | MIC P. aeruginosa ATTC 27853 [4] [mg/L] | MIC E. coli ATCC 25922 [5] [mg/L] | MIC S. aureus ATCC 25923 [6] [mg/L] | MIC K. pneumoniae BAA 2146 [7] [mg/L] | CC50 at 24 h [8] [µM]
1 | CCCCCCCC(=O)N[C@H](C(=O)N[C@@H](CCCN)C(=O)N[C@H]1CCNC(=O)[C@H]([C@@H](C)O)NC(=O)[C@H](CCN)NC(=O)[C@H](CCN)NC(=O)[C@H](CC(C)C)NC(=O)[C@@H](Cc2ccccc2)NC(=O)[C@H](CCN)NC1=O)[C@@H](C)O [Compound 40] (Octanoyl-T[Orn][Dab][Dab][dF]L[Dab][Dab]T; lactam 3-C) | 8 (≈ 7.25 µM) | 16 (≈ 14.5 µM) | 4 (≈ 3.63 µM) | 2 (≈ 1.81 µM) | 2 (≈ 1.81 µM) | >32 | 4 (≈ 3.63 µM) | > 300
2 | CCCCCCCC(=O)N[C@H](C(=O)NCC(=O)N[C@H]1CCNC(=O)[C@H]([C@@H](C)O)NC(=O)[C@H](CCN)NC(=O)[C@H](CCN)NC(=O)[C@H](CC(C)C)NC(=O)[C@@H](Cc2ccccc2)NC(=O)[C@H](CCN)NC1=O)[C@@H](C)O [Compound 49] (Octanoyl-TG[Dab][Dab][dF]L[Dab][Dab]T; lactam 3-C) | >32 | >32 | >32 | >32 | 4 (≈ 3.82 µM) | >32 | >32 | 163
3 | CCCCCCCC(=O)N[C@H](C(=O)N[C@H](CO)C(=O)N[C@H]1CCNC(=O)[C@H]([C@@H](C)O)NC(=O)[C@H](CCN)NC(=O)[C@H](CCN)NC(=O)[C@H](CC(C)C)NC(=O)[C@@H](Cc2ccccc2)NC(=O)[C@H](CCN)NC1=O)[C@@H](C)O [Compound 36] (Octanoyl-T[dS][Dab][Dab][dF]L[Dab][Dab]T; lactam 3-C) | >32 | 32 (≈ 29.7 µM) | >32 | 16 (≈ 14.9 µM) | 4 (≈ 3.72 µM) | >32 | 16 (≈ 14.9 µM) | 213
4 | CCCCCCCC(=O)N[C@@H](CCN)C(=O)N[C@H](C(=O)N[C@H]1CCNC(=O)[C@H]([C@@H](C)O)NC(=O)[C@H](CCN)NC(=O)[C@H](CCN)NC(=O)[C@H](CC(C)C)NC(=O)[C@@H](Cc2ccccc2)NC(=O)[C@H](CCN)NC1=O)[C@@H](C)O [Compound 9] (Octanoyl-[Dab]T[Dab][Dab][dF]L[Dab][Dab]T; lactam 3-C) | >32 | >32 | >32 | 32 (≈ 29.4 µM) | >32 | >32 | >32 | 79
5 | CC(C)C[C@@H]1NC(=O)[C@@H](Cc2ccccc2)NC(=O)[C@H](CCN)NC(=O)[C@@H](NC(=O)[C@H](CCN)NC(=O)[C@@H](NC(=O)CCCCCc2ccccc2)[C@@H](C)O)CCNC(=O)[C@H]([C@@H](C)O)NC(=O)[C@H](CCN)NC(=O)[C@H](CCN)NC1=O [Compound 13] ({Hexanoyl(6-Ph)}-T[Dab][Dab][Dab][dF]L[Dab][Dab]T; lactam 3-C) | 8 (≈ 7.03 µM) | 8 (≈ 7.03 µM) | 2 (≈ 1.76 µM) | 1 (≈ 0.879 µM) | 1 (≈ 0.879 µM) | >32 | 1 (≈ 0.879 µM) | 189
6 | CCCCCCCC(=O)N[C@H](C(=O)N[C@@H](CN)C(=O)N[C@H]1CCNC(=O)[C@H]([C@@H](C)O)NC(=O)[C@H](CCN)NC(=O)[C@H](CCN)NC(=O)[C@H](CC(C)C)NC(=O)[C@@H](Cc2ccccc2)NC(=O)[C@H](CCN)NC1=O)[C@@H](C)O [Compound 39] (Octanoyl-T[Dap][Dab][Dab][dF]L[Dab][Dab]T; lactam 3-C) | 1 (≈ 0.93 µM) | 1 (≈ 0.93 µM) | 1 (≈ 0.93 µM) | 1 (≈ 0.93 µM) | 1 (≈ 0.93 µM) | >32 | 0.5 (≈ 0.465 µM) | 290
